Test results taken from US20210403567A1, “METHODS OF TREATING CERVICAL CANCER BY ADMINISTERING A PD-1 INHIBITOR” (priority 2020, published 2021).
“And” between values parts separate entries of the source, which are not always exact repeats. Equal entries are not always repeated.

What was measured:
[1] = tested on: recurrent or metastatic cervical cancer; experiment: Phase I expansion cohorts: cemiplimab 3 mg/kg IV Q2W alone or plus hfRT, tumor response (RECIST 1.1), PFS, OS; assay type: in vivo, human
Excerpt: The combination therapy cohort enrolled patients for whom palliative hfRT was planned to a lesion that was causing some signs or symptoms. The radiated lesion was not followed as a target lesion for response assessments.
Additional eligibility criteria included an Eastern Cooperative Oncology Group performance status score of 0 or 1, and adequate organ function. Patients were required to have at least one measurable lesion per Response Evaluation Criteria in Solid Tumors (RECIST) version 1.1. (Eisenhauer et al., Eur J Cancer 45 (2009) 228-47). In the combination therapy cohort, the measureable lesion(s) were in addition to the irradiated lesion.
Assessments: Tumor histology was assessed per local pathology reports of tumor samples obtained at any time prior to study enrollment. […] Extensive safety evaluations were performed during screening and on Day 1 of each subsequent treatment cycle throughout the study. Routine safety evaluations were performed at each cemiplimab dosing visit. Tumor response assessments were performed by investigators, per RECIST 1.1, at the end of each 8-week treatment cycle. In combination therapy cohorts, the lesions selected for hfRT were not included in RECIST 1.1 assessments.
Statistical analysis of clinical data: The safety summaries and analyses were performed on the safety analysis set. Data were summarized using descriptive statistics, along with two-sided 95% confidence interval (CI), by dose cohort. Continuous variables were summarized with mean, median, standard deviation, minimum, and maximum. Categorical variables were summarized with frequency and percentage. Kaplan-Meier analysis was performed for progression-free survival (PFS) and OS.

[2] = tested on: recurrent or metastatic cervical cancer that has progressed after platinum-containing chemotherapy; experiment: Phase 3 trial, cemiplimab 350 mg IV Q3W versus investigator's choice (IC) chemotherapy: OS, PFS, ORR, DOR; details: for OS Hazard Ratio (95% CI): AC (non-SCC); for OS Hazard Ratio (95% CI) / OS subgroup analysis, Hazard Ratio (95% CI) / PFS HR (95% CI): cemiplimab vs chemotherapy; for Median OS (95% CI) / Median PFS (95% CI): Kaplan-Meier; for PFS Hazard Ratio (95% CI): cemiplimab vs chemo;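 as to all read-outs here: randomized trial arms, OS counted from randomization until death with censoring at last contact, PFS until first RECIST 1.1 progression or death from any cause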
[3] = investigator assessment, n = 10 per cohort
[4] = AC, cemiplimab N=65, chemo N=66
[5] = Example 3 analysis, total population
[6] = Example 4 updated, AC, listed as cemiplimab

## cemiplimab
[1]; 4/23 combined: dose escalation plus expansion cohorts
  objective response rate among cervical cancer patients enrolled in the phase I study: 17%
[1]; both expansion cohorts combined
  responding patients in expansion cohorts: 2/20
[1]; includes missing and unknown tumor response, n = 10 per cohort
  NE (not evaluable), n (%): 1 n (%)
[1]; investigator assessment, RECIST 1.1, n = 10 per cohort
  ORR, % (95% CI): 10.0%
[1]; [3]
  Partial response, n (%): 1 n (%)
  Progressive disease, n (%): 5 n (%)
  Stable disease, n (%): 3 n (%)
[1]; n = 10 per cohort
  Kaplan-Meier estimation of median OS: 10.3 months
  Kaplan-Meier estimation of median PFS: 1.9 months
  patients with best response of stable disease: 30%
[1]; objective response or stable disease, n = 10 per cohort
  Disease control rate, % (95% CI): 40.0%
[1]; one patient in each cohort of 10
  patients with partial response: 10%
[1]; one responder in each group
  DOR (duration of response): 11.2 months
  Observed time to response: 1.8 months
[1]; without progression for at least 16 weeks (105 days), n = 10 per cohort
  Durable disease control rate, % (95% CI): 20.0%
[2]; AC
  ORR: 12.3% and 12%
  Median OS (95% CI): 13.3 (9.6, 17.6) months
[2]
  OS Hazard Ratio (95% CI): 0.556 (0.363, 0.853) and 0.56 (0.36-0.85)
[2]; listed as cemiplimab
  OS Hazard Ratio (95% CI): 0.56
[2]; AC, 6 months
  Estimated Event-Free Probability (PFS), % (95% CI): 30.1 (19.3, 41.6) %
  Estimated Survival Probability, % (95% CI): 69.6 (56.5, 79.4) %
[2]; AC, 12 months
  Estimated Event-Free Probability (PFS), % (95% CI): 10.6 (4.4, 20.0) %
  Estimated Survival Probability, % (95% CI): 57.4 (43.9, 68.7) %
[2]; AC, 18 months
  Estimated Event-Free Probability (PFS), % (95% CI): 8.5 (3.0, 17.6) %
  Estimated Survival Probability, % (95% CI): 34.2 (21.5, 47.3) %
[2]; AC, 24 months
  Estimated Event-Free Probability (PFS), % (95% CI): 8.5 (3.0, 17.6) %
  Estimated Survival Probability, % (95% CI): 19.5 (8.4, 34.1) %
[2]; AC, listed as cemiplimab
  Median OS (95% CI): 13.3 months
[2]; [4]
  Best Overall Tumor Response: Complete Response (CR): 3 (4.6%) n (%)
  Best Overall Tumor Response: Not Evaluable (NE): 6 (9.2%) n (%)
  Best Overall Tumor Response: Partial Response (PR): 5 (7.7%) n (%)
  Best Overall Tumor Response: Progressive Disease (PD): 19 (29.2%) n (%)
  OS: Number of censored patients: 24 (36.9%) n (%)
  Objective Response Rate (ORR: CR + PR): 8 (12.3%) n (%)
[2]; AC, post-hoc
  Reduced risk of death (vs. chemotherapy): 44%
[2]; AC, post-hoc, listed as cemiplimab
  Reduced risk of death (vs. chemotherapy): 44%
[2]; ECOG status per IWRS: 0
  OS subgroup analysis, Hazard Ratio (95% CI): 0.59 (0.43-0.82)
[2]; ECOG status per IWRS: 1
  OS subgroup analysis, Hazard Ratio (95% CI): 0.74 (0.57-0.96)
[2]; Example 3 analysis, Adeno, cemiplimab N=65, chemo N=66
  PFS: Number of events: 55 (84.6%) n (%)
[2]; Example 3 analysis, Adeno
  PFS Hazard Ratio (95% CI): 0.849 (0.574, 1.255)
[2]; Example 3 analysis, SCC
  Median PFS in month (95% CI): 2.8 (2.6, 4.0) month
  PFS: Number of censored patients: 53 (22.2%) n (%)
  PFS: Number of deaths: 25 (10.5%) n (%)
  PFS: Progressive Disease: 161 (67.4%) n (%)
  Reduced risk of progression (vs. chemotherapy): 31%
  PFS Hazard Ratio (95% CI): 0.686 (0.559, 0.843)
[2]; [5]
  Median PFS in month (95% CI): 2.8 (2.6, 3.9) month
  PFS: Number of censored patients: 63 (20.7%) n (%)
  PFS: Number of deaths: 31 (10.2%) n (%)
  PFS: Progressive Disease: 210 (69.1%) n (%)
  Reduced risk of progression (vs. chemotherapy): 28%
  PFS Hazard Ratio (95% CI): 0.719 (0.599, 0.862)
[2]; Example 3 analysis, total population, N=304 per arm
  PFS: Number of events: 241 (79.3%) n (%)
[2]; Example 4 updated, AC
  PFS: Number of censored patients: 9 (13.8%) n (%)
  PFS: Number of deaths: 7 (10.8%) n (%)
  PFS: Progressive Disease: 49 (75.4%) n (%)
  Median PFS (95% CI): 2.7 (2.3, 4.0) months
  PFS HR (95% CI): 0.912 (0.623, 1.335)
[2]; Example 4 updated, AC, post-hoc, vs chemotherapy
  reduction in the risk of disease progression: 9%
[2]; [6]
  Median PFS (95% CI): 2.7 months
  PFS HR (95% CI): 0.91
[2]; Example 4 updated, AC, cemiplimab N=65, chemo N=66
  PFS: Number of events: 56 (86.2%) n (%)
[2]; Example 4 updated, SCC
  PFS: Number of censored patients: 42 (17.6%) n (%)
  PFS: Number of deaths: 34 (14.2%) n (%)
  PFS: Progressive Disease: 163 (68.2%) n (%)
  Median PFS (95% CI): 2.8 (2.6, 4.0) months
